What was measured:
[1] = tested on: Senescent cells; assay: SA-β-Gal senescent cells in adipose tissue of high fat fed p16-3MR mice; type: in vivo; conditions: high fat diet four months, 25 mg/kg daily for five consecutive days, p=<0.004
Procedure: Groups of p16-3MR mice (n=6) were fed a high fat diet (60% fat) for four months mice or a regular chow diet. The presence of senescence cells was determined by measuring luminescence (i.e., p16 positive cells). […] Animals were then treated with ganciclovir or vehicle to determine if removal of senescent cells reduced the presence of senescent cells in adipose tissue. Groups of animals were treated with ganciclovir (GCV) or vehicle. Ganciclovir (25 mg/kg) was administered daily for five consecutive days. The presence of senescent cells in perirenal, epididymal, or subcutaneous inguinal adipose tissue was detected by SA-β-Gal staining Data were analyzed by ANOVA.

[2] = Glucose tolerance test and hemoglobin A1c in high fat fed p16-3MR mice; type: in vivo; conditions: high fat diet, 3 rounds of 25 mg/kg daily for five days
Procedure: Groups of p16-3MR mice (n=9) were fed a high fat diet for four months mice or a regular chow diet. Animals were then treated with ganciclovir (3 rounds of 25 mg/kg ganciclovir administered daily for five consecutive days) or vehicle. A glucose bolus was given at time zero, and blood glucose was monitored at 20, 30, 60, and 120 minutes after delivering glucose to determine glucose disposal (see FIG. 18A). This was also quantified as “area under the curve” (AUC) (see FIGS. 18B and 18C), with a higher AUC value indicating glucose intolerance.

[3] = Insulin Tolerance Testing (ITT); type: in vivo, mice
Procedure: Insulin sensitivity was also determined (Insulin Tolerance Testing (ITT)).

[4] = Weight, body composition and food intake monitoring; type: in vivo; conditions: p16-3MR mice, high fat diet
Description: Changes in weight, body composition, and food intake were also monitored.

[5] = Glucose tolerance testing in DIO INK-ATTAC,p16-3MR mice; type: in vivo; conditions: compared to vehicle-treated DIO mice
Procedure: Three-month old INK-ATTAC,p16-3MR mice were fed a high fat diet for 4 months. The animals were then treated with ganciclovir or vehicle. DIO mice were treated with ganciclovir on September 1 (see FIG. 21).

[6] = tested on: IMR90 cells; assay: Killing of radiation-induced senescent vs proliferating IMR90 fibroblasts; type: cell-based, human; conditions: enzastaurin at 0.25 0.5 and 2 μM
Description: Senescence of human primary lung fibroblasts (IMR90) (IMR-90 (ATCC® CCL-186TH, Mannassas, Va.) was induced by irradiation. IMR90 cells in culture were subjected to 10 Gy radiation (Day-7). Four days after irradiation (Day-3), the culture media was changed. Three days after the media change (Day 0), the cells were exposed to media containing quercetin. Non-irradiated IMR90 cells were included as controls. Non-irradiated and irradiated IMR90 cells were exposed to quercetin at concentrations of 5, 10, 15, and 45 μM. Percent survival was determined four days after exposure to the drugs (Day 4). The number of viable cells was determined by using ATPLITE (Perkin-Elmer, Waltham, Mass.).
In a separate experiment, IMR90 cells were irradiated as described above to induce senescence. Approximately 20 days after irradiation, the senescent cells and proliferating IMR90 cells were exposed to enzastaurin at concentrations of 0.25 0.5 and 2 μM.

[7] = tested on: HUVEC cells; assay: Viability (ATPLITE) of senescent and proliferating HUVEC endothelial cells; type: cell-based, human; conditions: enzastaurin in combination with dasatinib, FIG. 4E, 48 hours
Procedure: Human umbilical endothelial cells (HUVEC) (Lonza Group, Basel, Switzerland) were induced to senescence by exposure to 10 Gy radiation. Twenty days after irradiation, markers of cellular senescence (SA-β Gal) and growth arrest, determined by incorporation of BR dU, were evident. Non-senescent HUVEC cells used as control were plated at low density in culture media so that the cells were proliferating when exposed to the test drug. Senescent HUVEC cells and non-senescent, proliferating HUVEC cells were treated for 48 hours with quercetin, dasatinib, and enzastaurin as follows: (1) quercetin alone at 3.75, 7.5 and 15μ,M; (2) dasatinib alone at 25, 50, 100, and 200 nM; (3) enzastaurin alone at concentrations of 0.25 0.5 1 and 2 μM; (4) dasatinib at 100 nM plus quercetin at 7.5 μM; (5) with dasatinib at 50 nM plus quercetin at 7.5 μM; (6) dasatinib at 100 nM plus enzastaurin at 1.0 μM; (7) dasatinib at 100 nM plus enzastaurin at 0.5 μM; (8) dasatinib at 50 nM plus enzastaurin at 1.0 μM; (9) dasatinib at 50 nM plus enzastaurin at 0.5 μM; (10) quercetin at 15 μM and enzastaurin at 1.0 μM; (11) quercetin at 15 μM and enzastaurin at 1.0 μM; and (12) quercetin at 7.5 μM and enzastaurin at 1.0 μM. The number of viable cells was determined by ATPLITE (Perkin-Elmer, Waltham, Mass.). The data are presented in FIGS. 4A-4F as mean viability (ATP (μM))+SEM of 4.

Structure (SMILES) | presence of senescent cells in epididymal fat (SA-β-Gal) [1] | Hemoglobin A1c [2] | glucose tolerance test AUC ([2]; vs vehicle-treated) | decrease in blood glucose in insulin tolerance testing ([3]; p16-3MR mice fed a high fat diet, 0, 14, 30, 60, and 120 minutes) | change in insulin tolerance testing ([3]; wild-type mice) | body composition (percent of fat) [4] | body weight [4] | food intake (grams per week) [4] | glucose tolerance (areas under the curve in glucose tolerance tests) [5] | killing of proliferating IMR90 cells [6] | selective killing of senescent IMR90 cells ([6]; approximately 20 days after 10 Gy irradiation) | potentiating effect of dasatinib [7]
Nc1nc(O)c2ncn(COC(CO)CO)c2n1 [ganciclovir] | significant reduction | lower | significantly lower | greater decrease in blood glucose | not observed | did not alter | did not alter | did not alter | sustained and improved glucose tolerance | – | – | –
Cn1cc(C2=C(c3cn(C4CCN(Cc5ccccn5)CC4)c4ccccc34)C(=O)NC2=O)c2ccccc21 [Enzastaurin, 3-(1-Methylindol-3-yl)-4-[1-[1-(pyridin-2-ylmethyl)piperidin-4-yl]indol-3-yl]pyrrole-2,5-dione] | – | – | – | – | – | – | – | – | – | did not kill the proliferating cells | did not selectively kill the senescent cells | slight potentiating effect
